From patent US20210361549A1, “ANTIPERSPIRANT” (MANDOM CORPORATION, priority 2018, published 2021)

What was measured:
[1] = system: secretory duct of the sweat gland (whole sweat glands); experiment: Test Example 2: time-lapse imaging of isolated whole sweat glands, average moving distance of nuclei of secretory duct cells; type: cell-based, human; settings: antiperspirant as prepared contacted first; stimulating agent of Production Example 4 (10 mM pyrocalpin); five cells; FIG. 3 to FIG. 8
Protocol: Each of the antiperspirants obtained in Examples 2 to 7 was contacted with the whole sweat glands respectively, and change of the average of moving distances of nuclei of cells of a secretory duct of the sweat gland was examined with passage of time. Whether or not nuclei of cells of the secretory duct of the sweat gland moved was determined based on the results shown in FIG. 3 to FIG. 8, and evaluated in accordance with the following criteria for evaluation. […] The maximum value of the average of moving distances of nuclei of cells of the secretory duct of the sweat gland exceeds 1 μm: the nuclei of cells of the secretory duct of the sweat glands are moved.

[2] = system: secretory duct of the sweat gland (whole sweat glands); experiment: Test Example 1: time-lapse imaging of isolated whole sweat glands, moving distance of nuclei after pyrocarpin stimulation; type: cell-based, human; settings: for movement of the secretory duct of the sweat gland: observed in the time-lapse photographed image, antiperspirant contacted with whole sweat glands
Protocol: As skin tissues, skin tissues which were refrigerated immediately after isolating from living donors and stored at 4° C. for 15 hours were used. The skin tissues were immersed in PBS containing 10 μM staining agent (Neutral Red), to label the sweat glands included in the skin tissues. Next, the dermis of each of the skin tissues including the staining agent was finely cut to obtain dermal segments. Whole sweat glands were collected from the dermal segments by using tweezers under an optical microscope.
The whole sweat glands obtained in Test Example 1(1) were immersed in the staining reagent mixture obtained in Production Example 1 at room temperature (24° C.) for 30 minutes, to stain the whole sweat glands. The stained whole sweat glands were washed with PBS.
The washed whole sweat glands obtained in Test Example 1(2) were allowed to stand on a glass bottom dish under a stereoscopic microscope manufactured by Leica under the trade name of M125. The collagen-containing liquid obtained in Production Example 2 was added dropwise to the whole sweat glands that were allowed to stand on the glass bottom dish. Next, the above-mentioned glass bottom dish was incubated at 37° C. for 5 minutes to gelate the collagen type I-A contained in the collagen-containing liquid placed on the whole sweat glands. Thereafter, 300 μL of PBS was added onto the above-mentioned whole sweat glands so as not to dry the whole sweat glands. Thus, the whole sweat glands were held on the glass bottom dish used as a support with the collagen type I-A so that the position of each of the whole sweat glands was retained, to obtain an observation sample.
While adhesion of the whole sweat glands to the glass bottom dish with the gelated collagen type I-A was confirmed under the stereoscopic microscope, an aliquot of Dulbecco's phosphate buffer [manufactured by Gibco, Catalog No. 14190-144] was added to the glass bottom dish used as a support.
The antiperspirant obtained in Example 1 in an amount of 3 μL was contacted with the whole sweat glands on the glass bottom dish in the observation sample. The observation of the whole sweat glands on the glass bottom dish with the time-lapse imaging was initiated by using a confocal laser scanning microscope for biological uses [inverted microscope manufactured by Olympus Corporation under the trade name of IX-83 equipped with a device manufactured by Olympus Corporation under the trade name of FV 1200]. At that time, the whole sweat glands were visualized by detecting fluorescence derived from the nuclear staining reagent bound to the nuclei and fluorescence derived from the cytoskeleton-staining reagent bound to the cytoskeleton. After 600 seconds passed from the initiation of the observation, 30 μL of the sweat gland-stimulating agent obtained in Production Example 3 was contacted with the whole sweat glands on the glass bottom dish, and thereafter the observation with the time-lapse imaging was continued. […]
Next, five cells were selected from a cell group in the lumen of the secretory duct in the time-lapse photographed image of the whole sweat glands, and five cells were selected from a cell group in the outer periphery of the secretory duct. […] In order to measure a moving distance of the nuclei of the cell, firstly changes (differences) in coordinates between consecutive frames were calculated by using X-coordinate and Y-coordinate of the nuclei of each cell in accordance with the formulae (XI) and (XII): […]

[3] = system: armpit sweating of expert panelists; experiment: Test Example 3: degree of sweating scored by expert panelists after application to armpit and light exercise; type: in vivo, human; settings: applied to each armpit of ten expert panelists, light exercise; compared with control sample of Comparative Example 1 (PBS)
Source text: The antiperspirant obtained in Example 1 is applied to each armpit of ten expert panelists having the same proficiency in evaluation skill, and then the expert panelists are subjected to a light exercise. Thereafter, each of the expert panelists gives a score of the degree of sweating on the basis of the following criteria for evaluation. In addition, each of the expert panelists gives a score of the degree of sweating in the same manner as in the above except that the control sample of Comparative Example 1 is used in place of the antiperspirant obtained in Example 1. The average of the scores given by the expert panelists is calculated.
0 point: sweat in a large amount.
2 points: slightly sweat.

Molecule	movement of nuclei of cells of the secretory duct of the sweat gland (maximum of average of moving distances) [1]	movement of the secretory duct of the sweat gland [2]	average of the scores of the degree of sweating (0 to 4 points) [3]	also measured
α-amylin [Example 6]	hardly moved	–	–	–
CC1(C(=O)O)CCC2(C)CCC3(C)C(=CC(=O)C4C5(C)CCC(OC(=O)CCC(=O)O)C(C)(C)C5CCC43C)C2C1 (centres unmarked) [Example 1]	–	suppressed	tends to be higher	movement of nuclei of the cells of the lumen of the secretory duct of the sweat gland ([2]; 3 μL antiperspirant contacted first, 30 μL sweat gland-stimulating agent (100 mM pyrocarpin) after 600 seconds, FIG. 2A white circle): hardly moved; movement of nuclei of the cells of the outer periphery of the secretory duct of the sweat gland ([2]; 3 μL antiperspirant contacted first, 30 μL sweat gland-stimulating agent (100 mM pyrocarpin) after 600 seconds, FIG. 2A white triangle): hardly moved
CC1(C(=O)O)CCC2(C)CCC3(C)C(=CC(=O)C4C5(C)CCC(OC6OC(C(=O)O)C(O)C(O)C6OC6OC(C(=O)O)C(O)C(O)C6O)C(C)(C)C5CCC43C)C2C1 (centres unmarked) [formula (X)]	–	the same tendency as the antiperspirant obtained in Example 1	the same tendency as the antiperspirant obtained in Example 1	–
CC1(C)[C@@H](O)CC[C@]2(C)[C@H]3C(=O)C=C4[C@H]5C[C@@](C)(C(=O)O)CC[C@]5(C)CC[C@@]4(C)[C@]3(C)CC[C@@H]12 [Example 2, 18α-glycyrrhetinic acid]	hardly moved	–	–	–
CC1(C)CC[C@]2(C(=O)O)CC[C@]3(C)C(=CC[C@@H]4[C@@]5(C)CC[C@H](O)C(C)(C)[C@@H]5CC[C@]43C)[C@@H]2C1 [Example 5, oleanolic acid]	hardly moved	–	–	–
CC1(C)[C@@H](O)CC[C@]2(C)[C@H]3C(=O)C=C4[C@@H]5C[C@@](C)(C(=O)O)CC[C@]5(C)CC[C@@]4(C)[C@]3(C)CC[C@@H]12 [Example 3, 18β-glycyrrhetinic acid]	hardly moved	–	–	–
β-amylin [Example 7]	hardly moved	–	–	–
C[C@H]1[C@H](C)CC[C@]2(C(=O)O)CC[C@]3(C)C(=CC[C@@H]4[C@@]5(C)CC[C@H](O)C(C)(C)[C@@H]5CC[C@]43C)[C@H]12 [Example 4, ursolic acid]	hardly moved	–	–	–
CC1(C(=O)O)CCC2(C)CCC3(C)C(=CC(=O)C4C5(C)CCC(O)C(C)(C)C5CCC43C)C2C1 (centres unmarked) [formula (IX)]	–	the same tendency as the antiperspirant obtained in Example 1	the same tendency as the antiperspirant obtained in Example 1	–
